# What was measured:
# rat MDR1A = test: Apparent permeability in pig LLC-PK1 expressing rat MDR1A; assay type: ADME, cell-based, Sus scrofa
# [1] = Clearance in po dosed rat; assay type: ADME, organism-based; conditions: in vivo
# [2] = Half-life in po dosed rat; assay type: ADME, organism-based; conditions: in vivo
# Rattus norvegicus [3] = test: Volume of distribution in po dosed rat; assay type: ADME, organism-based; conditions: in vivo
# [4] = Oral bioavailability in rat; assay type: ADME, organism-based; conditions: in vivo
# Rattus norvegicus [5] = test: Dose normalized AUC in po dosed rat; assay type: ADME, organism-based; conditions: in vivo
# [6] = Solubility of the compound at pH 6.5; assay type: physicochemical; conditions: buffer
SMILES,solubility [6] [µM],other results
Cc1nc(NC2(c3ccc(C(F)(F)F)cc3)CC2)c2cnn(C)c2n1,,Papp (rat MDR1A): 0.82 to 26.7 ×10⁻⁶ cm/s; CL/F [1]: 44.4 mL/min/kg; half-life [2]: 1.34 h; Vd (Rattus norvegicus [3]): 3.78 L/kg; bioavailability [4]: 16.9%; AUC/dose (Rattus norvegicus [5]): 0.24 µM·kg·h/mg
FC(F)(F)c1ccc(C2(Nc3nc(Cl)nc4[nH]ncc34)CC2)cc1,105,Papp (rat MDR1A): 1.63 to 26.5 ×10⁻⁶ cm/s; CL/F [1]: 8.44 mL/min/kg; half-life [2]: 6.33 h; Vd (Rattus norvegicus [3]): 4.64 L/kg; bioavailability [4]: 146%; AUC/dose (Rattus norvegicus [5]): 6.59 µM·kg·h/mg
Cn1ncc2c(NC3(c4ccc(C(F)(F)F)cc4)CC3)nc(Cl)nc21,156,
Cn1ncc2c(NCc3ccc(Cl)cc3)nc(Cl)nc21,145,
CNc1nc(Cl)nc2c1cnn2C,206,
Cn1ncc2c(NC(C)(C)c3ccc(C(F)(F)F)cc3)nc(Cl)nc21,183,
Cn1ncc2c(NC3(c4ccc(C(F)(F)F)cc4)CC3)nc(O)nc21,175,
Cn1ncc2c(NCc3ccccc3Cl)nc(Cl)nc21,44,
Cn1ncc2c(NC3(c4ccc(C(F)(F)F)cc4)CC3)nc(C3CC3)nc21,125,

# Now from value to compound, other results behind:
solubility [6] [µM],SMILES,other results
139,Cn1ncc2c(N3CCCC3c3ccc(C(F)(F)F)cc3)nc(Cl)nc21 (configuration not stated),
159,C[C@@H](Nc1nc(Cl)nc2c1cnn2C)c1ccc(C(F)(F)F)cc1,
138,Cn1ncc2c(N3CCCCC3c3ccc(C(F)(F)F)cc3)nc(Cl)nc21 (configuration not stated),
176,Cn1ncc2c(NCc3ccc(C(F)(F)F)cn3)nc(Cl)nc21,
150,Cn1ncc2c(NCCc3ccc(C(F)(F)F)cc3)nc(Cl)nc21,
164,Cn1ncc2c(NCc3ccc(C(F)(F)F)cc3)nc(Cl)nc21,
78,Cn1ncc2c(NCc3cccc(Cl)c3)nc(Cl)nc21,

# Reference: ChEMBL document CHEMBL4177679, “The identification of a novel lead class for phosphodiesterase 2 inhibition by fragment-based drug design” (Bioorg Med Chem Lett, 2017)
